The RepoRT retention time repository

Assay: HILIC, HILICON iHILIC-(P) Classic, HILIC, PEEK, 100 × 2.1 mm, 5 µm, 40 °C, 0.2 mL/min, estimated dead time 1.1 min; A: water + 20 mM ammonium carbonate + 5 µM medronic acid; B: 10% water + 90% acetonitrile + 2 mM ammonium carbonate + 0.5 µM medronic acid; gradient (min/%B) 0/95 18/55 19/20 22/20 22.5/95 24/95 26/95
Conditions: stereoisomer not certain

Compound | LC retention time
NC(=O)c1ccc[n+](C2OC(COP(=O)(O)OP(=O)(O)OCC3OC(n4cnc5c(N)ncnc54)C(OP(=O)(O)O)C3O)C(O)C2O)c1 (centres undefined) [NADP] | 14.4 min
NC(CCC(=O)NC(CSSCC(NC(=O)CCC(N)C(=O)O)C(=O)NCC(=O)O)C(=O)NCC(=O)O)C(=O)O (centres undefined) [GSSG] | 14.7 min
NC(N)=NCCCC(N)C(=O)O (centres undefined) [Arginine] | 18.5 min
CC(O)C(=O)O (centres undefined) [Lactic Acid] | 3.92 min
NC(=O)CC(N)C(=O)O (centres undefined) [Asparagine] | 9.65 min
Nc1ncnc2c1ncn2C1OC(COP(=O)(O)OP(=O)(O)O)C(O)C1O (centres undefined) [ADP] | 11.9 min
O=C(O)C=CC(=O)O [Fumaric Acid] | 12.4 min
NCCCCC(N)C(=O)O (centres undefined) [Lysine] | 18.3 min
CC(C)(COP(=O)(O)OP(=O)(O)OCC1OC(n2cnc3c(N)ncnc32)C(O)C1OP(=O)(O)O)C(O)C(=O)NCCC(=O)NCCS (centres undefined) [CoenzymeA] | 11.5 min
CC(=O)SCCNC(=O)CCNC(=O)C(O)C(C)(C)COP(=O)(O)OP(=O)(O)OCC1OC(n2cnc3c(N)ncnc32)C(O)C1OP(=O)(O)O (centres undefined) [Acetyl-CoA] | 9.93 min
Nc1ncnc2c1ncn2C1OC(CO)C(O)C1O (centres undefined) [Adenosine] | 4.79 min
NC(=O)c1ccc[n+](C2OC(COP(=O)(O)OP(=O)(O)OCC3OC(n4cnc5c(N)ncnc54)C(O)C3O)C(O)C2O)c1 (centres undefined) [NAD] | 11.1 min
Nc1ncnc2c1ncn2C1OC(COP(=O)(O)OP(=O)(O)OP(=O)(O)O)C(O)C1O (centres undefined) [ATP] | 13.3 min
NC(=O)C1=CN(C2OC(COP(=O)(O)OP(=O)(O)OCC3OC(n4cnc5c(N)ncnc54)C(O)C3O)C(O)C2O)C=CC1 (centres undefined) [NADH] | 9.08 min
NC(=O)C1=CN(C2OC(COP(=O)(O)OP(=O)(O)OCC3OC(n4cnc5c(N)ncnc54)C(OP(=O)(O)O)C3O)C(O)C2O)C=CC1 (centres undefined) [NADPH] | 15.2 min
Nc1ncnc2c1ncn2C1OC(COP(=O)(O)O)C(O)C1O (centres undefined) [AMP] | 10.1 min

Second part, the compound after the results:

LC retention time | Compound
15.5 min | O=C(O)CC(C(=O)O)C(O)C(=O)O (centres undefined) [Isocitric acid]
9.7 min | NC(CCC(=O)O)C(=O)O (centres undefined) [Glutamic acid]
14.6 min | C=C(OP(=O)(O)O)C(=O)O [PEP]
10.2 min | NC(CC(=O)O)C(=O)O (centres undefined) [Aspartic Acid]
12 min | CC(=O)NC1C(OP(=O)(O)OP(=O)(O)OCC2OC(n3ccc(=O)[nH]c3=O)C(O)C2O)OC(CO)C(O)C1O (centres undefined) [UDP-GlcNAc]
11.2 min | O=C(O)CCC(=O)O [Succinic Acid]
16.4 min | O=P(O)(O)OCC1OC(O)(COP(=O)(O)O)C(O)C1O (centres undefined) [Fructose-1,6-bisphosphate]
12.7 min | O=C(O)CCC(=O)C(=O)O [2-Oxoglutaric acid]
11.6 min | O=P(O)(O)OCC1OC(O)C(O)C1O (centres undefined) [Pentose-phosphate]
13.9 min | O=P(O)(O)OCC1OC(O)C(O)C(O)C1O (centres undefined) [Glucose-6-phosphate]
10.2 min | NC(CCC(=O)NC(CS)C(=O)NCC(=O)O)C(=O)O (centres undefined) [GSH]
9.81 min | NC(=O)CCC(N)C(=O)O (centres undefined) [Glutamine]
11.9 min | O=C(CO)C(O)C(O)C(O)COP(=O)(O)O (centres undefined) [Fructose 6-phosphate]
11.9 min | O=P(O)(O)OC1OC(CO)C(O)C(O)C1O (centres undefined) [Glucose-1-phosphate]
15.3 min | O=C(O)CC(O)(CC(=O)O)C(=O)O [Citric acid]
11.8 min | O=C(CO)COP(=O)(O)O [Triose phosphate]
10.8 min | O=P(O)(O)OCC(O)CO (centres undefined) [Glycerol-3-phosphate]
11.9 min | O=C(O)CC(O)C(=O)O (centres undefined) [Malic Acid]
